Reference: patent US20020022722A1, “4'-C-ethynyl pyrimidine nucleoside compounds” (priority 1999, published 2002)
≈ marks a conversion by molar mass, not a printed value. Like-named read-outs stand apart in the source and are kept apart here.

Key:
[1] = result in words; cited from earlier work
[2] = test system: HIV-1 IIIb strain; details: MT-4 cells, result in words; cited from earlier work
[3] = test system: HIV wild strain: WT; assay: MAGI assay using HeLa CD4/LTR-beta-Gal cells, WT; type: cell-based
Experimental: (§1) 2) MAGI Assay Using HeLa CD4/LTR-beta-Gal Cells
(§2) 1. HeLa CD4/LTR-beta-Gal cells are added to 96 wells such that the number of cells in each well is 10,000. After 12-24 hours, the culture medium is removed, and a diluted test agent (100 μl) is added.
(§3) 2. A variety of HIV strains (wild strain: WT, drug-resistant strain: MDR, M184V, NL4-3, 104pre, and C; each equivalent to 50 TCID50) are added, and the cells are further cultured for 48 hours.
(§4) 3. The cells are fixed for five minutes using PBS containing 1% formaldehyde and 0.2% glutaraldehyde.
(§5) 4. After the fixed cells are washed with PBS three times, the cells are stained with 0.4 mg/ml X-Gal for one hour, and the number of blue-stained cells of each well is counted under a transmission stereoscopic microscope. The test agent concentration at which blue-stained cells decrease to 50% and 90% in number represents EC50 and EC90, respectively.

[4] = test system: HIV drug-resistant strain: MDR; assay: MAGI assay using HeLa CD4/LTR-beta-Gal cells, MDR; type: cell-based; details: Human immunodeficiency virus 1, HeLa
Experimental: as §1, §2, §3, §4, §5

[5] = Cytotoxicity by use of HeLa CD4/LTR-beta-Gal cells; type: cell-based; details: human
Experimental: (§6) 5. In a manner similar to that employed in the MTT method, cytotoxicity is measured by use of HeLa CD4/LTR-beta-Gal cells.

[6] = test system: HIV-1 (IIIb strain); assay: Anti-HIV activity, MTT method using MT-4 cells; type: cell-based; details: Human immunodeficiency virus 1, IIIB
Experimental: (2) Anti-human Immunodeficiency Virus (HIV) Activity
(§7) 1) MTT Method Using MT-4 Cells
(§8) 1. A test agent (100 μl) is diluted on a 96-well microplate. MT-4 cells infected with HIV-1 (IIIb strain; 100 TCID50) and non-infected MT-4 cells are added to the microplate such that the number of cells in each well becomes 10,000. The cells are cultured at 37° C. for five days.
(§9) 2. MTT (20 μl, 7.5 mg/ml) is added to each well, and the cells are further cultured for 2-3 hours.
(§10) 3. The cultured medium (120 μl) is sampled, and MTT terminating solution (isopropanol containing 4% Triton X-100 and 0.04N HCl) is added to the sample. The mixture is stirred to form formazane, which is dissolved. The absorbance at 540 nm of the solution is measured. Since the absorbance is proportional to the number of viable cells, the test agent concentration at which a half value of the absorbance is measured in a test using infected MT-4 cells represents EC50, whereas the test agent concentration at which a half value of the absorbance is measured in a test using non-infected MT-4 cells represents CC50.

[7] = Cytotoxicity, MTT method using non-infected MT-4 cells; type: cell-based; details: human
Experimental: as §7, §8, §9, §10

[8] = test system: HIV drug-resistant strain: M184V; assay: MAGI assay using HeLa CD4/LTR-beta-Gal cells, M184V; type: cell-based; details: Human immunodeficiency virus 1, HeLa
Experimental: as §1, §2, §3, §4, §5

[9] = test system: HIV strain C; assay: MAGI assay using HeLa CD4/LTR-beta-Gal cells, C; type: cell-based; details: Human immunodeficiency virus 1, HeLa; for EC90: read-out: HIV C (EC90, μM); for EC50: read-out: HIV C EC50, μM
Experimental: as §1, §2, §3, §4, §5

[10] = test system: HeLa CD4/LTR-beta-Gal cells; assay: Cytotoxicity by use of HeLa CD4/LTR-beta-Gal cells; type: cell-based; details: Table 6
Experimental: as §6

[11] = test system: HIV strain 104pre; assay: MAGI assay using HeLa CD4/LTR-beta-Gal cells, 104pre; type: cell-based
Experimental: as §1, §2, §3, §4, §5

[12] = test system: HIV strain NL4-3; assay: MAGI assay using HeLa CD4/LTR-beta-Gal cells, NL4-3; type: cell-based
Experimental: as §1, §2, §3, §4, §5

[13] = test system: multi-PI resistant HIV-1; details: result in words; cited from earlier work
[14] = Human immunodeficiency virus 1, HeLa, read-out: HIV WT (EC50, μg/ml), Table 5
[15] = read-out: HIV MDR (EC50, μg/ml), Table 5
[16] = Table 5, read-out: Cytotoxicity (CC50, μg/ml)
[17] = MT4, Table 2, read-out: HIV-1 (EC50, μg/ml)
[18] = non-infected MT-4 cells, Table 2, read-out: Cytotoxicity (CC50, μg/ml)
[19] = read-out: HIV M184V (EC50, μg/ml), Table 5
[20] = Human immunodeficiency virus 1, HeLa, read-out: HIV WT (EC50, μg/ml), Table 6
[21] = read-out: HIV MDR (EC50, μg/ml), Table 6
[22] = MT4, Table 4, read-out: HIV-1 (EC50)
[23] = MT4, read-out: HIV-1 (EC50, μg/ml), Table 2
[24] = MT4, read-out: HIV-1 (EC50, μg/ml), Table 3
[25] = read-out: HIV M184V (EC50, μg/ml), Table 6
[26] = Table 6, read-out: Cytotoxicity (CC50, μg/ml)
[27] = MT4, Table 3, read-out: HIV-1 (EC50, μg/ml)
[28] = non-infected MT-4 cells, Table 3, read-out: Cytotoxicity (CC50, μg/ml)

Compound: C#C[C@]1(CO)O[C@@H](n2cc(C)c(=O)[nH]c2=O)[C@H](O)[C@@H]1O [1-(4-C-ethynyl-β-D-ribo-pentofuranosyl)thymine]
- biological activities such as antiviral and antitumor activities [1]: no such biological activities have been observed

Compound: C#C[C@]1(CO)O[C@@H](n2cc(C)c(=O)[nH]c2=O)C[C@@H]1O [4′-C-ethynyl thymidine, 4′-C-ethynylthymidine, reference compound]
- anti-HIV activity compared with AZT [2]: weaker than that of AZT
- EC50 [3, 14]: 0.097 µg/mL (≈ 0.364 µM)
- EC50 [4, 15]: 0.033 µg/mL (≈ 0.124 µM)
- CC50 [5, 16]: > 100 µg/mL
- EC50 [6, 17]: 0.22 µg/mL
- CC50 at 5 days [7, 18]: > 100 µg/mL
- EC50 [8, 19]: 0.049 µg/mL (≈ 0.184 µM)

Compound: C#C[C@]1(CO)O[C@@H](n2ccc(N)nc2=O)[C@H](O)[C@@H]1O [4′-C-ethynylcytidine]
- biological activities such as antiviral and antitumor activities [1]: no such biological activities have been observed

Compound: C#C[C@]1(CO)O[C@@H](n2ccc(=O)[nH]c2=O)[C@H](O)[C@@H]1O [4′-C-ethynyluridine]
- biological activities such as antiviral and antitumor activities [1]: no such biological activities have been observed

Compound: Cc1cn([C@H]2C[C@H](N=[N+]=[N-])[C@@H](CO)O2)c(=O)[nH]c1=O [AZT, zidovudine, reference compound]
- EC90 [9]: > 10 µM
- EC50 [9]: 3.27 µM
- EC50 [3, 14]: 0.0059 µg/mL (≈ 0.0221 µM)
- EC50 [3, 20]: 0.0027 µg/mL (≈ 0.0101 µM)
- EC50 [4, 15]: 4.1 µg/mL (≈ 15.3 µM)
- EC50 [4, 21]: 5.34 µg/mL (≈ 20 µM)
- CC50 [5, 16]: > 26.7 µg/mL
- Cytotoxicity (CC50, μg/ml) [10]: >26.7 µg/mL
- EC50 [6, 22]: 55 nM
- EC50 [6, 23]: 0.0016 µg/mL
- EC50 [6, 24]: 0.0011 µg/mL
- CC50 at 5 days ([7]; Table 2, read-out: Cytotoxicity (CC50, μg/ml)): > 0.27 µg/mL
- CC50 at 5 days ([7]; Table 3, read-out: Cytotoxicity (CC50, μg/ml)): 9.08 µg/mL
- EC50 [8, 19]: 0.0083 µg/mL (≈ 0.0311 µM)
- EC50 [8, 25]: 0.0013 µg/mL (≈ 0.00486 µM)
- EC90 ([11]; Human immunodeficiency virus 1, Table 7, value in parentheses, HeLa CD4/LTR-beta-Gal cells, read-out: HIV 104 pre (EC90)): 9.66 µM
- EC50 ([11]; Human immunodeficiency virus 1, Table 7, HeLa CD4/LTR-beta-Gal cells, read-out: HIV 104 pre EC50): 0.059 µM
- EC90 ([12]; Human immunodeficiency virus 1, NL43, Table 7, value in parentheses, HeLa CD4/LTR-beta-Gal cells, read-out: HIV NL-43 (EC90)): 4.96 µM
- EC50 ([12]; Human immunodeficiency virus 1, NL43, Table 7, HeLa CD4/LTR-beta-Gal cells, read-out: HIV NL-43 EC50): 0.109 µM

Compound: C#C[C@]1(CO)O[C@@H](n2ccc(N)nc2=O)C[C@@H]1O [Compound 13, 4′-C-ethynyl-2′-deoxycytidine]
- EC50 ([3]; Human immunodeficiency virus 1, Table 5, read-out: HIV WT (EC50, μg/ml)): 0.00031 µg/mL (≈ 0.00123 µM)
- EC50 [4, 15]: 0.0003 µg/mL (≈ 0.00119 µM)
- EC50 [6, 17]: 0.0012 µg/mL
- EC50 [8, 19]: 0.00054 µg/mL (≈ 0.00215 µM)

Compound: C#C[C@]1(CO)O[C@@H](n2ccc(N)nc2=O)[C@@H](O)[C@@H]1O [Compound 19, 1-(4-C-ethynyl-β-D-arabino-pentofuranosyl)cytosine]
- EC50 [3, 14]: 0.0019 µg/mL (≈ 0.00711 µM)
- EC50 [4, 15]: 0.021 µg/mL (≈ 0.0786 µM)
- CC50 [5, 16]: > 100 µg/mL
- EC50 [6, 23]: 0.0115 µg/mL
- CC50 at 5 days [7, 18]: 0.53 µg/mL
- EC50 [8, 19]: 0.19 µg/mL (≈ 0.711 µM)

Compound: C#C[C@]1(CO)O[C@@H](n2cnc3c(N)ncnc32)CC1O (stereo partly drawn) [Compound 23, 9-(2-deoxy-4-C-ethynyl-β-D-ribo-pentofuranosyl)adenine]
- EC50 [3, 20]: 0.0012 µg/mL (≈ 0.00436 µM)
- EC50 [4, 21]: 0.0017 µg/mL (≈ 0.00618 µM)
- CC50 [5, 26]: > 100 µg/mL
- EC50 [6, 27]: 0.0027 µg/mL
- CC50 at 5 days [7, 28]: 4.4 µg/mL
- EC50 [8, 25]: 0.013 µg/mL (≈ 0.0472 µM)

Compound: C#C[C@]1(CO)O[C@@H](n2cnc3c(N)nc(N)nc32)CC1O (stereo partly drawn) [Compound 28, 9-(2-deoxy-4-C-ethynyl-β-D-ribo-pentofuranosyl)-2,6-diaminopurine]
- EC50 [3, 20]: 0.00028 µg/mL (≈ 0.000965 µM)
- EC50 [4, 21]: 0.00029 µg/mL (≈ 0.000999 µM)
- CC50 [5, 26]: 2.7 µg/mL (≈ 9.3 µM)
- EC50 [6, 24]: 0.0001 µg/mL
- CC50 at 5 days [7, 28]: 0.26 µg/mL
- EC50 [8, 25]: 0.0017 µg/mL (≈ 0.00586 µM)

Compound: C#C[C@]1(CO)O[C@@H](n2cnc3c(=O)[nH]cnc32)CC1O (stereo partly drawn) [Compound 29, 9-(2-deoxy-4-C-ethynyl-β-D-ribo-pentofuranosyl)hypoxanthine]
- EC50 [3, 20]: 0.22 µg/mL (≈ 0.796 µM)
- EC50 [4, 21]: 0.14 µg/mL (≈ 0.507 µM)
- CC50 [5, 26]: > 100 µg/mL
- EC50 [6, 27]: 0.037 µg/mL
- CC50 at 5 days [7, 28]: 38 µg/mL
- EC50 [8, 25]: 4.6 µg/mL (≈ 16.7 µM)

Compound: C#C[C@]1(CO)O[C@@H](n2cnc3c(=O)[nH]c(N)nc32)CC1O (stereo partly drawn) [Compound 30, 9-(2-deoxy4-C-ethynyl-β-D-ribo-pentofuranosyl)guanine]
- EC50 [3, 20]: 0.002 µg/mL (≈ 0.00687 µM)
- EC50 [4, 21]: 0.0014 µg/mL (≈ 0.00481 µM)
- CC50 [5, 26]: 15.2 µg/mL (≈ 52.2 µM)
- EC50 [6, 24]: 0.00044 µg/mL
- CC50 at 5 days [7, 28]: 0.41 µg/mL
- EC50 [8, 25]: 0.0023 µg/mL (≈ 0.0079 µM)

Compound: C#C[C@]1(CO)O[C@@H](n2cc(F)c(N)nc2=O)C[C@@H]1O [Compound 37, 4′-C-ethynyl-2′-deoxy-5-fluorocytidine]
- EC90 [9]: 3.44 µM
- EC50 [9]: 0.122 µM
- EC50 [6, 22]: 33 nM
- CC50 at 5 days ([7]; non-infected MT-4 cells, Table 4, read-out: Cytotoxicity (CC50)): > 500000 nM
- EC90 ([11]; Human immunodeficiency virus 1, HeLa, read-out: HIV 104 pre (EC90, μM)): 0.19 µM
- EC50 ([11]; Human immunodeficiency virus 1, HeLa, read-out: HIV 104 pre EC50, μM): 0.022 µM
- EC90 ([12]; Human immunodeficiency virus 1, NL43, HeLa, read-out: HIV NL-43 (EC90, μM)): 0.25 µM
- EC50 ([12]; Human immunodeficiency virus 1, NL43, HeLa, read-out: HIV NL-43 EC50, μM): 0.021 µM

Compound: Cc1ccccc1CNC(=O)[C@H]1N(C(=O)[C@@H](O)[C@H](Cc2ccccc2)NC(=O)c2cccc(O)c2C)CSC1(C)C [JE-2147]
- antiviral activity against a multi-PI resistant HIV-1 [13]: potent antiviral activity
